Test results: PubChem BioAssay AID1259407 (Chemical Carcinogenesis Research Information System (CCRIS), 2018)
Active and inactive are the calls of the source. The rule behind the calls is not given here.

Tested on: CCRIS mutagenicity, Ames/micronucleus/aberration tests
Assay: CCRIS mutagenicity studies

How did the mutagenic call (Test System: AMES SALMONELLA TYPHIMURIUM, Strain/Indicator: TA100, Metabolic Activation: RAT,LIVER, HEPATOCYTES, PHENOBARBITAL, Method: PREINCUBATION) turn out when O=P1(N(CCCl)CCCl)NCCCO1 (stereo not drawn) was run?
The mutagenic call was “active; positive”.

What about the mutagenic call (Test System: AMES SALMONELLA TYPHIMURIUM, Strain/Indicator: TA100, Metabolic Activation: S-9, Method: PREINCUBATION) of the same molecule?
The mutagenic call was “active; positive”.

What about the mutagenic call (Test System: AMES SALMONELLA TYPHIMURIUM, Strain/Indicator: TA100, Metabolic Activation: S-9, Method: STANDARD PLATE) of the same molecule?
Its mutagenic call is “active; positive”.

And the mutagenic call (Test System: AMES SALMONELLA TYPHIMURIUM, Strain/Indicator: TA1535, Metabolic Activation: NONE, Method: SPIRAL ASSAY)?
The mutagenic call was “active; positive”.

And the mutagenic call (Test System: AMES SALMONELLA TYPHIMURIUM, Strain/Indicator: TA1535, Metabolic Activation: RAT (MALE), LIVER, HEPATOCYTES, AROCLOR 1254, Method: STANDARD PLATE)?
Its mutagenic call is “active; positive”.

What about the mutagenic call (Test System: AMES SALMONELLA TYPHIMURIUM, Strain/Indicator: TA1535, Metabolic Activation: RAT (MALE), LIVER, HEPATOCYTES, Method: STANDARD PLATE) of the same molecule?
Its mutagenic call is “active; positive”.

And the mutagenic call (Test System: AMES SALMONELLA TYPHIMURIUM, Strain/Indicator: TA1535, Metabolic Activation: RAT (PREGNANT FEMALE), LIVER, HEPATOCYTES, AROCLOR 1254, Method: STANDARD PLATE)?
The mutagenic call was “active; positive”.

And the mutagenic call (Test System: AMES SALMONELLA TYPHIMURIUM, Strain/Indicator: TA1535, Metabolic Activation: RAT (PREGNANT FEMALE), LIVER, HEPATOCYTES, Method: STANDARD PLATE)?
Its mutagenic call is “inactive; negative”.

And the mutagenic call (Test System: AMES SALMONELLA TYPHIMURIUM, Strain/Indicator: TA1535, Metabolic Activation: RAT, LIVER, HEPATOCYTES, PHENOBARBITAL, Method: PREINCUBATION)?
Its mutagenic call is “active; positive”.

What about the mutagenic call (Test System: AMES SALMONELLA TYPHIMURIUM, Strain/Indicator: TA1535, Metabolic Activation: RAT, LIVER, S-9, AROCLOR 1254, Method: PREINCUBATION) of the same molecule?
Its mutagenic call is “active; positive”.

And the mutagenic call (Test System: AMES SALMONELLA TYPHIMURIUM, Strain/Indicator: TA1535, Metabolic Activation: RAT, LIVER, S-9, AROCLOR 1254, Method: SPIRAL ASSAY)?
Its mutagenic call is “active; positive”.

And the mutagenic call (Test System: AMES SALMONELLA TYPHIMURIUM, Strain/Indicator: TA1535, Metabolic Activation: RAT, LIVER, S-9, PHENOBARBITAL AND ALPHA-NAPHTHOFLAVONE, Method: STANDARD PLATE)?
Its mutagenic call is “active; positive”.

And the mutagenic call (Test System: AMES SALMONELLA TYPHIMURIUM, Strain/Indicator: TA1535, Metabolic Activation: RAT, LIVER, S-9, PHENOBARBITAL, Method: STANDARD PLATE)?
The mutagenic call was “active; positive”.

What about the mutagenic call (Test System: AMES SALMONELLA TYPHIMURIUM, Strain/Indicator: TA1535, Metabolic Activation: RAT, LIVER, S-9, Method: STANDARD PLATE) of the same molecule?
Its mutagenic call is “active; positive”.

What about the mutagenic call (Test System: AMES SALMONELLA TYPHIMURIUM, Strain/Indicator: TA1537, Metabolic Activation: NONE, Method: SPIRAL ASSAY) of the same molecule?
The mutagenic call was “inactive; negative”.

And the mutagenic call (Test System: AMES SALMONELLA TYPHIMURIUM, Strain/Indicator: TA1537, Metabolic Activation: NONE, Method: STANDARD PLATE)?
Its mutagenic call is “inactive; negative”.

What about the mutagenic call (Test System: AMES SALMONELLA TYPHIMURIUM, Strain/Indicator: TA1537, Metabolic Activation: RAT, LIVER, S-9, AROCLOR 1254, Method: SPIRAL ASSAY) of the same molecule?
Its mutagenic call is “inactive; negative”.

What about the mutagenic call (Test System: AMES SALMONELLA TYPHIMURIUM, Strain/Indicator: TA1537, Metabolic Activation: S-9, Method: STANDARD PLATE) of the same molecule?
The mutagenic call was “inactive; negative”.

What about the mutagenic call (Test System: CHINESE HAMSTER V-79, Strain/Indicator: V-79/6-THIOGUANINE, Metabolic Activation: NONE, Method: SUSPENSION/PLATE) of the same molecule?
Its mutagenic call is “inactive; negative”.

What about the mutagenic call (Test System: CHINESE HAMSTER V-79, Strain/Indicator: V-79/6-THIOGUANINE, Metabolic Activation: RAT, LIVER, HEPATOCYTES, Method: SUSPENSION/PLATE) of the same molecule?
The mutagenic call was “active; positive”.

And the mutagenic call (Test System: E. COLI, Strain/Indicator: WP2 (HCR), Metabolic Activation: S-9, Method: STANDARD PLATE)?
Its mutagenic call is “active; positive”.

And the mutagenic call (Test System: E. COLI, Strain/Indicator: WP2, Metabolic Activation: NONE, Method: FLUCTUATION (MICROTITER))?
Its mutagenic call is “active; positive”.

What about the mutagenic call (Test System: E. COLI, Strain/Indicator: WP2 UVRA, Metabolic Activation: HAMSTER, LIVER, S-9, AROCLOR 1254, Method: STANDARD PLATE) of the same molecule?
Its mutagenic call is “inactive; negative”.

What about the mutagenic call (Test System: E. COLI, Strain/Indicator: WP2 UVRA, Metabolic Activation: HAMSTER, LIVER, S-9, Method: STANDARD PLATE) of the same molecule?
Its mutagenic call is “inactive; negative”.

And the mutagenic call (Test System: E. COLI, Strain/Indicator: WP2 UVRA, Metabolic Activation: MOUSE, LIVER, S-9, AROCLOR 1254, Method: STANDARD PLATE)?
The mutagenic call was “inactive; negative”.

And the mutagenic call (Test System: E. COLI, Strain/Indicator: WP2 UVRA, Metabolic Activation: MOUSE, LIVER, S-9, Method: STANDARD PLATE)?
Its mutagenic call is “inactive; negative”.

What about the mutagenic call (Test System: E. COLI, Strain/Indicator: WP2 UVRA, Metabolic Activation: NONE, Method: FLUCTUATION (MICROTITER)) of the same molecule?
The mutagenic call was “active; positive”.

And the mutagenic call (Test System: E. COLI, Strain/Indicator: WP2 UVRA, Metabolic Activation: NONE, Method: STANDARD PLATE)?
Its mutagenic call is “inactive; negative”.

And the mutagenic call (Test System: E. COLI, Strain/Indicator: WP2 UVRA, Metabolic Activation: RAT, LIVER, S-9, AROCLOR 1254, Method: STANDARD PLATE)?
The mutagenic call was “inactive; negative”.

What about the mutagenic call (Test System: E. COLI, Strain/Indicator: WP2 UVRA, Metabolic Activation: RAT, LIVER, S-9, Method: STANDARD PLATE) of the same molecule?
Its mutagenic call is “inactive; negative”.

And the mutagenic call (Test System: MOUSE LYMPHOMA, Strain/Indicator: L5178Y (TK+/TK-), Metabolic Activation: NONE, Method: SUSPENSION/PLATE)?
Its mutagenic call is “active; positive”.

And the mutagenic call (Test System: UDS RAT HEPATOCYTES, Strain/Indicator: THY INCORP, Metabolic Activation: NONE, Method: AUTORADIOGRAPHY)?
The mutagenic call was “active; positive”.

What about the mutagenic call (Test System: UDS RAT HEPATOCYTES, Strain/Indicator: THY INCORP, Metabolic Activation: NONE, Method: AUTORADIOGRAPHY (SERUM-FREE MEDIA)) of the same molecule?
Its mutagenic call is “active; positive”.
